According to ChEMBL document CHEMBL1139701, “A bioisosteric approach to the discovery of indole carbinol androgen receptor ligands” (Bioorg Med Chem Lett, 2006):

Target: T1, Androgen receptor (Rattus norvegicus, UniProt P15207)
T1 sequence (P15207 whole entry): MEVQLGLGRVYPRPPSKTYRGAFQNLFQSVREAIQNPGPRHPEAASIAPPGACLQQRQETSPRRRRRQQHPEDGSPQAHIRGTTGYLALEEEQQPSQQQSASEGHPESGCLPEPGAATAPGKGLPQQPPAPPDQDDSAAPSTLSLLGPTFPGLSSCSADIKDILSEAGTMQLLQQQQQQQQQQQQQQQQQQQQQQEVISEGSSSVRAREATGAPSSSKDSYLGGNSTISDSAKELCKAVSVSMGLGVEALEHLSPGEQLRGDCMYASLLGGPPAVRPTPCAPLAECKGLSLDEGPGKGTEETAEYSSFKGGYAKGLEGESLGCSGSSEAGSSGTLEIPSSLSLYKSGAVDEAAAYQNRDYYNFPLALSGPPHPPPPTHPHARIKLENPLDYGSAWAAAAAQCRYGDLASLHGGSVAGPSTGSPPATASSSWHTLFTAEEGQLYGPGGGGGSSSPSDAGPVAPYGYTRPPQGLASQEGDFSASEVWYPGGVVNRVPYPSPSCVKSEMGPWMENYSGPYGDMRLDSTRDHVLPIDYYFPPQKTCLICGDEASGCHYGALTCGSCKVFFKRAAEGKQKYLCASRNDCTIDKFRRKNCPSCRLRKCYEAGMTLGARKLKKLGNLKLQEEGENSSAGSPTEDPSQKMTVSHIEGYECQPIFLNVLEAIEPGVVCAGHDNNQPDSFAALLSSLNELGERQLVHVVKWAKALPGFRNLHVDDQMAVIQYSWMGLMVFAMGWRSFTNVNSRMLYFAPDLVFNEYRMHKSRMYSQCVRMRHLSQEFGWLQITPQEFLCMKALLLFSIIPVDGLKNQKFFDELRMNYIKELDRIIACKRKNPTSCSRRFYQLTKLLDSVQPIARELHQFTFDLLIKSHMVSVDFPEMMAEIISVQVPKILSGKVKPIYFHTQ
Test: Displacement of [3H]R1881 from rat androgen receptor

Row | SMILES | IC50 [nM]
1 | CC(O)(CSc1ccccc1)c1cc2cc(Cl)c(C(F)(F)F)cc2[nH]1 (centres undefined) | 220
2 | COc1ccc(C(=O)OCC(C)(O)c2cc3cc([N+](=O)[O-])c(C(F)(F)F)cc3[nH]2)cc1 (centres undefined) | 6400
3 | Cc1ccc(C(=O)OCC(C)(O)c2cc3cc([N+](=O)[O-])c(C(F)(F)F)cc3[nH]2)cc1 (centres undefined) | 3000
4 | CC(C)(C)c1ccc(C(=O)OCC(C)(O)c2cc3cc([N+](=O)[O-])c(C(F)(F)F)cc3[nH]2)cc1 (centres undefined) | 3600
5 | CC(O)(COC(=O)c1ccc(F)cc1)c1cc2cc(C#N)c(C(F)(F)F)cc2[nH]1 (centres undefined) | 1200
6 | CC(O)(CS(=O)(=O)c1ccc(F)cc1)c1cc2cc(C#N)c(C(F)(F)F)cc2[nH]1 (centres undefined) | > 6900
7 | CN(C)c1ccc(C(=O)OCC(C)(O)c2cc3cc([N+](=O)[O-])c(C(F)(F)F)cc3[nH]2)cc1 (centres undefined) | 2600
8 | CC(O)(COC(=O)c1ccc([N+](=O)[O-])cc1)c1cc2cc([N+](=O)[O-])c(C(F)(F)F)cc2[nH]1 (centres undefined) | 1600
9 | CC(O)(CSc1ccc(Cl)c(Cl)c1)c1cc2cc([N+](=O)[O-])c(C(F)(F)F)cc2[nH]1 (centres undefined) | 1000
10 | CC(O)(COC(=O)c1ccccc1)c1cc2cc(C#N)c(C(F)(F)F)cc2[nH]1 (centres undefined) | 480
11 | CC(O)(CSc1ccc(Cl)cc1)c1cc2cc(Cl)c(C(F)(F)F)cc2[nH]1 (centres undefined) | 180
12 | CC(O)(COC(=O)c1ccccc1C(F)(F)F)c1cc2cc(NC(=O)C(F)(F)F)c(C(F)(F)F)cc2[nH]1 (centres undefined) | 150

Target: T2, Androgen receptor (Rattus norvegicus) (UniProt P15207)
T2 sequence (whole entry): T1 sequence (P15207 whole entry)
Test: Displacement of [3H]R1881 from rat androgen receptor at 30 uM relative to control

Row | inhibition [%] | SMILES
13 | < 50 | COC(=O)c1ccc2[nH]c(C(C)(O)CSc3ccc(Cl)cc3)cc2c1 (centres undefined)
14 | < 50 | CC(O)(CSc1ccc(Cl)cc1)c1cc2ccccc2[nH]1 (centres undefined)
